# Laboratory results as given in US20260152503A1, “SPIROBICYCLIC COMPOUNDS” (ACERAND THERAPEUTICS (HONG KONG) LIMITED, priority 2022, published 2026).
# What was measured:
# FGFR2 = molecular target: T1, FGFR2 (Homo sapiens, UniProt P21802, K310R/N549K); test: pERK potency assay (In Cell ELISA), AN3CA cells; assay type: cell-based; conditions: for IC50: pERK, AN3CA (FGFR2/k310R, N549K) cells, 3 hours; for FGFR1 IC50/FGFR2 IC50 / FGFR3 IC50/FGFR2 IC50: selectivity ratio, pERK potency; for FGFR1 IC50/FGFR2 IC50: FGFR2 relative to FGFR1; for FGFR3 IC50/FGFR2 IC50: FGFR2 relative to FGFR3
# T1 construct: in FGFR aberrations of AN3CA (FGFR2/k310R, N549K); host or cells: AN3CA
# Method in brief: (§1)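 Cells with FGFR aberrations (DMS114 FGFR1 amplification, RT112 FGFR3-TACC3 fusion, AN3CA FGFR2 K310R/N549K) exposed 3 h at 37 °C to compound, final 0.000038–10 μM (4-fold dilutions). pERK (Thr202/Tyr204) quantified by In-Cell ELISA chemiluminescence; IC50 from 4-parameter sigmoidal fit.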
# FGFR1 = molecular target: T2, FGFR1 (Homo sapiens, UniProt P11362); test: pERK potency assay (In Cell ELISA), DMS114 cells; assay type: cell-based; conditions: DMS114 (FGFR1 amplification) cells, 3 hours
# T2 construct: DMS114 (FGFR1 amplification); host or cells: DMS114
# Method in brief: as §1
# FGFR3 = molecular target: T3, FGFR3 (Homo sapiens, UniProt P22607); test: pERK potency assay (In Cell ELISA), RT112 cells; assay type: cell-based; conditions: RT112 (FGFR3 overexpression/FGFR3-TACC3 fusion) cells, 3 hours
# T3 construct: RT112 (FGFR3 overexpression/FGFR3-TACC3 fusion); host or cells: RT112; the other entry of the earlier key: TACC3 (Q9Y6A5, Transforming acidic coiled-coil-containing protein 3)
# Method in brief: as §1
# AN3CA = test: 2D cell proliferation assay, AN3CA; assay type: cell-based; conditions: Homo sapiens, AN3-CA, 96 hours, CTG, read-out: Cell Line, IC50 AN3CA
# Experimental: (§2) Low IC50 values are indicative of the high potency of the FGFR inhibitor compounds in this assay selling. […] Cell proliferation assays are performed in two-dimensional (2D)) anchorage-dependent conditions in 96 well plates (Corning® Black/Clear flat Bottom, Cat #3603) with the following cell lines: • Ba/F3 FGFR2-BICC1 (human […]): Mouse Ba/F3 cell line stably expressed exogenous human FGFR2-BICC1 fusion gene bearing V546F mutation in FGFR2 Ba/F3; • FGFR2-BICC1 (human FGFR2/[…]): Mouse Ba/F3 cell line stably expressed exogenous human FGFR2-BICC1 fusion gene bearing N549K mutation in FGFR2; • Snu-16: human gastric cancer cell with FGFR2 amplification; • KATO III: human gastric cancer cell with FGFR2 amplification; • AN3CA: Human endometrial cancer with FGFR2 mutation (k310R, N549K); • MFM-223: Human breast cancer with FGFR1/2 amplification; • MFE-296: Human endometrial cancer with FGFR2 mutation (N549K); • MFE-280: Human endometrial cancer with FGFR2 mutation ([…]); • NCI-H1581: human non-small cell lung cancer with FGFR1 amplification; • KG-1a: Acute myelogenous leukemia with FGFR1OP2-FGFR1 translocation; • DMS114: human small cell carcinoma of the lung with FGFR1 amplification; • RT112: human bladder cancer with FGFR3 overexpression/FGFR3-TACC3 fusion; • SW780: human bladder cancer with FGFR3 overexpression/FGFR3-BALAP2L1 fusion; • Hep3B: Liver cancer with FGF19 amplification (FGFR4 ligand); • AGS: Human gastric adenocarcinoma with Kras G12D mutation and FGFR wild type; • PC-9: human non-small cell lung cancer (NSCLC) with wild-type FGFR and an EGFR del19 mutation; or • H1975: human non-small cell lung cancer (NSCLC) with wild-type FGFR and EGFR L858R/T790M mutation.
# (§3) Cell lines are purchased from the American Type Culture Collection (ATCC) or Sigma. All cell lines are maintained in RPMI-1640 or DMEM supplemented with 10% heat-inactivated fetal bovine serum.
# (§4) Cells growing in the log phase are detached with Gibco™ TrypLE™ Express Enzyme and plated in 96 well plate at 3000 to 5000 cells/well in 100 μl of media. After overnight incubation at 37° C., 5% CO2 incubator, cells are treated with compounds (50 uL/well) at the final concentrations spanning from 0.000038 uM to 10 μM (4-fold serial dilution for total of 10 points). Cells are incubated at 37° C., 5% CO2, and 95% humidity incubator for 96 hours. At the end of incubation 2D CTG reagent from Promega was added to each well according to vendors recommendation and mixed for 10 min in dark. The luminescence signals are determined with a Biotek™ plate reader. Data is fitted using a sigmoidal curve analysis program (GraphPad Prism®) with variable hill slope and IC50 is determined.
# Ba/F3 FGFR2-N549K = molecular target: T4, Ba/F3 FGFR2-N549K (Homo sapiens, UniProt P21802, N549K, cells depend on it); test: 2D cell proliferation assay, Ba/F3 FGFR2-N549K; assay type: cell-based, mouse; conditions: 96 hours, CTG, read-out: Cell Line, IC50 Ba/F3 FGFR2-N549K
# T4 construct: fused on or other part: Q9H694 (Protein bicaudal C homolog 1)
# Experimental: as §2, §3, §4
# Ba/F3 FGFR2-V564F = molecular target: T5, Ba/F3 FGFR2-V564F (Homo sapiens, UniProt P21802, V564F, cells depend on it); test: 2D cell proliferation assay, Ba/F3 FGFR2-V564F; assay type: cell-based, mouse; conditions: 96 hours, CTG, read-out: Cell Line, IC50 Ba/F3 FGFR2-V564F
# T5 construct: fused on or other part: Q9H694 (Protein bicaudal C homolog 1)
# Experimental: as §2, §3, §4
# KATO III = test: 2D cell proliferation assay, KATO III; assay type: cell-based; conditions: Homo sapiens, 96 hours, CTG, read-out: Cell Line, IC50 KATO III
# Experimental: as §2, §3, §4
# SNU-16 = test: 2D cell proliferation assay, SNU-16; assay type: cell-based; conditions: Homo sapiens, 96 hours, CTG, read-out: Cell Line, IC50 SNU-16
# Experimental: as §2, §3, §4
# T1 sequence (P21802 22-821 K310R/N549K): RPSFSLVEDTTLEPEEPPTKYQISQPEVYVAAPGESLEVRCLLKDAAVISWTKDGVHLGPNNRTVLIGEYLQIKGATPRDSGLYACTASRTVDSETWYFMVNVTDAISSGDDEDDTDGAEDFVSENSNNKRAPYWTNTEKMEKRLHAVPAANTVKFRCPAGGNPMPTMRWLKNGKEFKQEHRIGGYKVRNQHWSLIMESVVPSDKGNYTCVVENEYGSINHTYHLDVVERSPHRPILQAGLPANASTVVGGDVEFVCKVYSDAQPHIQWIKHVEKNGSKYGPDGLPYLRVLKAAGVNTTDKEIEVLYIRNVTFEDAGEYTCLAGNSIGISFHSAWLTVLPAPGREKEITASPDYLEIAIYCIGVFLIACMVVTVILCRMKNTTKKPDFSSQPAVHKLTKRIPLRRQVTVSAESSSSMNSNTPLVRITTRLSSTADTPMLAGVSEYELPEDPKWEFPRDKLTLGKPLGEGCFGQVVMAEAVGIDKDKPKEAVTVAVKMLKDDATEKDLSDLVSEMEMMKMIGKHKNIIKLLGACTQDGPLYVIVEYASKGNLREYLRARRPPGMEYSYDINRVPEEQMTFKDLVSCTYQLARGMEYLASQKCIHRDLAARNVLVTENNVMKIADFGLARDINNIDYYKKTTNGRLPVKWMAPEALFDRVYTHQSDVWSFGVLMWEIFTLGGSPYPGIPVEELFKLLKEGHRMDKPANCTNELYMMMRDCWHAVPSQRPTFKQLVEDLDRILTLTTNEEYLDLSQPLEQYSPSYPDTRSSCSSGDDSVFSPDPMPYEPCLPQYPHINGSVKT
# T5 sequence (P21802 whole entry V564F, the tested form may be a part): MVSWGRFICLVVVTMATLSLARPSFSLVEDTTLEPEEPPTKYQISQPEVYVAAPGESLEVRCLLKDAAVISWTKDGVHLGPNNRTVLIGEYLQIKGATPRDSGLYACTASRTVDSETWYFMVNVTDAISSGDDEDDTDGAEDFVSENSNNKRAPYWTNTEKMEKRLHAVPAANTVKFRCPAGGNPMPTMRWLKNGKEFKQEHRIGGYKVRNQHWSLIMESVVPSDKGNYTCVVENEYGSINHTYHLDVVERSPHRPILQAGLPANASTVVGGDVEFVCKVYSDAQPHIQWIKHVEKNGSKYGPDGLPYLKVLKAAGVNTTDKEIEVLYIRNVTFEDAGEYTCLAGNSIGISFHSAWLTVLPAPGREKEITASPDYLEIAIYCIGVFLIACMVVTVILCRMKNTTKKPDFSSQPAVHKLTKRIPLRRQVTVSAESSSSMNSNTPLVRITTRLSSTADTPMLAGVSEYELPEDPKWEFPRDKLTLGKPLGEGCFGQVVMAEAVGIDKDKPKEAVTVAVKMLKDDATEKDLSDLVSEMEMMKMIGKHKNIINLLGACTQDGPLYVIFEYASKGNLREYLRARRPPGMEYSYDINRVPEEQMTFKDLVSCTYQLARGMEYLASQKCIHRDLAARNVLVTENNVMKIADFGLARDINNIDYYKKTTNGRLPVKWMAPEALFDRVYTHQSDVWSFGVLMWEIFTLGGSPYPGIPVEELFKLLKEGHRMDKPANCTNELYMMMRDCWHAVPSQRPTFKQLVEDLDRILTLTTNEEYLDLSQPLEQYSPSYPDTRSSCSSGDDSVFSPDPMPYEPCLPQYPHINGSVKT
# T4 sequence (P21802 whole entry N549K, the tested form may be a part): as the sequence (P21802 whole entry V564F, the tested form may be a part) above, with N549K, F564V counted along it
# T2 sequence (P11362 22-822): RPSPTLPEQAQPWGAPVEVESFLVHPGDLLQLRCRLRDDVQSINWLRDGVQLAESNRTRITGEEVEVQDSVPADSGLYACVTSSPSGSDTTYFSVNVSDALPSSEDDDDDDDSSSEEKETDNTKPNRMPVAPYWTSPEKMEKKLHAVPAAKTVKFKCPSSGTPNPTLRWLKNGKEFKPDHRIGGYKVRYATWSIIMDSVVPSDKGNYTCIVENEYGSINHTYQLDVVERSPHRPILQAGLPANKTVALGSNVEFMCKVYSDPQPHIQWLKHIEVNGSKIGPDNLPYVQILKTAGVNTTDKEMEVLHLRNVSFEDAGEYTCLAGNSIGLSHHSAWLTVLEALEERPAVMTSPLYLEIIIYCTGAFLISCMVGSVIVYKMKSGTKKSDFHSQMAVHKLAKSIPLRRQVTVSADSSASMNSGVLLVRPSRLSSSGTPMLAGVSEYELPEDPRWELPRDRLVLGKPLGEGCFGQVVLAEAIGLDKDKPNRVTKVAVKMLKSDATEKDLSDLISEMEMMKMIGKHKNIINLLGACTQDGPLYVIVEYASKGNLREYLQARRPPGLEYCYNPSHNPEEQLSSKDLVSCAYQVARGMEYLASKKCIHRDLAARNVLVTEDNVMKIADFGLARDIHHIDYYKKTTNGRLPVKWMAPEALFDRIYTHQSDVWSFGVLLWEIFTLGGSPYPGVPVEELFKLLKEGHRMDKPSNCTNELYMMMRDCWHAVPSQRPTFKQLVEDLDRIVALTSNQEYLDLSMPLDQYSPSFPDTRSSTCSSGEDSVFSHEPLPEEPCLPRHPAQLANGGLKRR
Structure (SMILES),IC50 (FGFR2),IC50 (FGFR1),IC50 (FGFR3),GI50 (Ba/F3 FGFR2-N549K),GI50 (Ba/F3 FGFR2-V564F),IC50 (SNU-16),FGFR1 IC50/FGFR2 IC50 (FGFR2),FGFR3 IC50/FGFR2 IC50 (FGFR2),IC50 (AN3CA),IC50 (KATO III)
"C=CC(=O)N1CCC2(CC=C(c3[nH]c4ncnc(N)c4c3-c3ncccn3)CC2)CC1 [Example 58, 1-(9-(4-amino-5-(pyrimidin-2-yl)-7H-pyrrolo[2,3-d]pyrimidin-6-yl)-3-azaspiro[5.5]undec-8-en-3-yl)prop-2-en-1-one]",1 to 10 nM,> 100 nM,> 100 nM,10 to 30 nM,1 to 10 nM,10 to 30 nM,G (a selectivity ratio greater than 150 but less than or equal to 500),H (a selectivity ratio greater than 500 but less than or equal to 1000),1 to 10 nM,10 to 30 nM
"C=CC(=O)N1CCC2(CC=C(c3c(-c4ccc(OC)nc4)c4c(N)ncnc4n3C)CC2)CC1C (centres unmarked) [Example 39, 1-(9-(4-amino-5-(6-methoxypyridin-3-yl)-7-methyl-7H-pyrrolo[2,3-d]pyrimidin-6-yl)-2-methyl-3-azaspiro[5.5]undec-8-en-3-yl)prop-2-en-1-one]",1 to 10 nM,> 100 nM,> 100 nM,1 to 10 nM,10 to 30 nM,10 to 30 nM,G (a selectivity ratio greater than 150 but less than or equal to 500),I (a selectivity ratio greater than 1000 but less than or equal to 2000),10 to 30 nM,10 to 30 nM
"C=CC(=O)N1CCC2(CC=C(c3c(-c4ncc(C#N)cn4)c4c(N)ncnc4n3C)CC2)CC1 [Example 51, 2-(6-(3-acryloyl-3-azaspiro[5.5]undec-8-en-9-yl)-4-amino-7-methyl-7H-pyrrolo[2,3-d]pyrimidin-5-yl)pyrimidine-5-carbonitrile]",≤ 1 nM,> 100 nM,> 100 nM,1 to 10 nM,1 to 10 nM,10 to 30 nM,J (a selectivity ratio greater than 2000),J (a selectivity ratio greater than 2000),30 to 100 nM,10 to 30 nM
"C=CC(=O)N1CCC2(CC=C(c3c(-c4ccc(OC5CCCC5)nc4)c4c(N)ncnc4n3C)CC2)CC1 [Example 24, 1-(9-(4-amino-5-(6-(cyclopentyloxy)pyridin-3-yl)-7-methyl-7H-pyrrolo[2,3-d]pyrimidin-6-yl)-3-azaspiro[5.5]undec-8-en-3-yl)prop-2-en-1-one]",1 to 10 nM,> 100 nM,> 100 nM,1 to 10 nM,30 to 100 nM,10 to 30 nM,F (a selectivity ratio greater than 50 but less than or equal to 150),F (a selectivity ratio greater than 50 but less than or equal to 150),10 to 30 nM,10 to 30 nM
"C=CC(=O)N1CCC2(CC=C(c3c(-c4ccc(OC(F)F)cc4)c4c(N)ncnc4n3C)CC2)CC1 [Example 17, 1-(9-(4-amino-5-(4-(difluoromethoxy)phenyl)-7-methyl-7H-pyrrolo[2,3-d]pyrimidin-6-yl)-3-azaspiro[5.5]undec-8-en-3-yl)prop-2-en-1-one]",≤ 1 nM,30 to 100 nM,> 100 nM,,,1 to 10 nM,G (a selectivity ratio greater than 150 but less than or equal to 500),G (a selectivity ratio greater than 150 but less than or equal to 500),10 to 30 nM,1 to 10 nM

# Further lines, with some results ahead:
IC50 (FGFR2),IC50 (FGFR1),IC50 (FGFR3),GI50 (Ba/F3 FGFR2-N549K),GI50 (Ba/F3 FGFR2-V564F),IC50 (SNU-16),Structure (SMILES),FGFR1 IC50/FGFR2 IC50 (FGFR2),FGFR3 IC50/FGFR2 IC50 (FGFR2),IC50 (AN3CA),IC50 (KATO III)
1 to 10 nM,> 100 nM,> 100 nM,1 to 10 nM,10 to 30 nM,1 to 10 nM,"C=CC(=O)N1CCC2(CC=C(c3c(-c4cnc(OC)c(F)c4)c4c(N)ncnc4n3C)CC2)CC1 [Example 28, 1-(9-(4-amino-5-(5-fluoro-6-methoxypyridin-3-yl)-7-methyl-7H-pyrrolo[2,3-d]pyrimidin-6-yl)-3-azaspiro[5.5]undec-8-en-3-yl)prop-2-en-1-one]",F (a selectivity ratio greater than 50 but less than or equal to 150),G (a selectivity ratio greater than 150 but less than or equal to 500),10 to 30 nM,1 to 10 nM
1 to 10 nM,> 100 nM,> 100 nM,1 to 10 nM,10 to 30 nM,1 to 10 nM,"C=CC(=O)N1CCC2(CC=C(c3c(-c4cnc(OC5CC5)c(F)c4)c4c(N)ncnc4n3C)CC2)CC1 [Example 23, 1-(9-(4-amino-5-(6-cyclopropoxy-5-fluoropyridin-3-yl)-7-methyl-7H-pyrrolo[2,3-d]pyrimidin-6-yl)-3-azaspiro[5.5]undec-8-en-3-yl)prop-2-en-1-one]",G (a selectivity ratio greater than 150 but less than or equal to 500),H (a selectivity ratio greater than 500 but less than or equal to 1000),10 to 30 nM,1 to 10 nM
1 to 10 nM,> 100 nM,> 100 nM,1 to 10 nM,≤ 1 nM,30 to 100 nM,"C=CC(=O)N1CCC2(CC=C(c3c(-c4cnccn4)c4c(N)ncnc4n3C)CC2)CC1 [Example 59, 1-(9-(4-amino-7-methyl-5-(pyrazin-2-yl)-7H-pyrrolo[2,3-d]pyrimidin-6-yl)-3-azaspiro[5.5]undec-8-en-3-yl)prop-2-en-1-one]",F (a selectivity ratio greater than 50 but less than or equal to 150),H (a selectivity ratio greater than 500 but less than or equal to 1000),30 to 100 nM,30 to 100 nM
≤ 1 nM,30 to 100 nM,> 100 nM,,,1 to 10 nM,"C=CC(=O)N1CCC2(CC=C(c3c(-c4ccc(OC)cc4)c4c(N)ncnc4n3C)CC2)CC1 [Example 8, 1-(9-(4-amino-5-(4-methoxyphenyl)-7-methyl-7H-pyrrolo[2,3-d]pyrimidin-6-yl)-3-azaspiro[5.5]undec-8-en-3-yl)prop-2-en-1-one]",G (a selectivity ratio greater than 150 but less than or equal to 500),H (a selectivity ratio greater than 500 but less than or equal to 1000),1 to 10 nM,1 to 10 nM
